From patent US9771334B2, “Triketone compound and preparation method and use thereof” (SHANDONG CYNDA CHEMICAL CO., LTD., priority 2013, dated 2017)

What was measured:
Type in all cases: in vivo
amaranthus retroflexus = test: Herbicidal activity, pot culture method (primary and secondary screening test); settings: sprayed at 3-leaf stage; for inhibition ratio, Amaranthus retroflexus: investigated 15 days later; for herbicidal activity inhibition ratio (%), Amaranthus retroflexus: primary screening, pot culture, 150 g/ha, result 15 days later
Summary of the method: (§1)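 Weeds were sown in 1:2 garden soil:seedling matrix and sprayed at the 3-leaf stage by automatic spray tower. Compounds were dissolved in DMF and diluted in water to 0.2 g/L, dosed at 150 g/ha; the secondary screen used a reduced dose. Inhibition ratio (%) was assessed after 15 days in the greenhouse.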

digitaria sanguinalis = test: as above; settings: sprayed at 3-leaf stage; for inhibition ratio, Digitaria sanguinalis: investigated 15 days later; for herbicidal activity inhibition ratio (%), Digitaria sanguinalis: primary screening, pot culture, 150 g/ha, result 15 days later
Summary of the method: as §1

eclipta prostrata = test: as above; settings: sprayed at 3-leaf stage; for inhibition ratio, Eclipta prostrata: investigated 15 days later; for herbicidal activity inhibition ratio (%), Eclipta prostrata: primary screening, pot culture, 150 g/ha, result 15 days later
Summary of the method: as §1

echinochloa crusgalli = test: as above; settings: sprayed at 3-leaf stage; for inhibition ratio, Echinochloa crusgalli: investigated 15 days later; for herbicidal activity inhibition ratio (%), Echinochloa crusgalli: primary screening, pot culture, 150 g/ha, result 15 days later
Summary of the method: as §1

setaria viridis = test: as above; settings: for inhibition ratio, Setaria viridis / herbicidal activity inhibition ratio (%), Setaria viridis: sprayed at 3-leaf stage; for inhibition ratio, Setaria viridis: investigated 15 days later; for herbicidal activity inhibition ratio (%), Setaria viridis: primary screening, pot culture, 150 g/ha, result 15 days later
Summary of the method: as §1

abutilon theophrasti = test: as above; settings: sprayed at 3-leaf stage; for inhibition ratio, Abutilon theophrasti: investigated 15 days later; for herbicidal activity inhibition ratio (%), Abutilon theophrasti: primary screening, pot culture, 150 g/ha, result 15 days later
Summary of the method: as §1

maize = test: Crop safety test (pot culture method); settings: for inhibition ratio, Maize (crop safety): plants with about 4-5 leaves, investigated 15 days later
Excerpt: (§2) This test example is for describing crop safety of the compound with a structure shown in Formula (1). Crop safety test method (pot culture method): The test targets are wheat and maize. Take flowerpots with an inner diameter of 12 cm, put composite soil (vegetable garden soil:seedling matrix=1:2, v/v) into them till ¾ of flowerpot height, directly sow the crop seeds (budding rate>85%), cover them with 0.2 cm thick soil, and keep the plants for future use when they grow to have about 4-5 leaves. Each compound is dissolved in N,N-dimethylformamide at doses of 75 g/ha or 150 g/ha and diluted with distilled water containing 0.1% tween-80 emulsifier to form 0.1 g/L (75 g/ha) solution and 0.2 g/L (150 g/ha) solution respectively. The solutions are sprayed through an automatic spray tower. After the solutions on weed leaves are dried in the air, the flowerpots are moved into a greenhouse for cultivation. The result is investigated 15 days later.

wheat = test: Crop safety test (pot culture method); settings: plants with about 4-5 leaves, investigated 15 days later
Excerpt: as §2

Row | Compound | inhibition ratio, Amaranthus retroflexus (amaranthus retroflexus; dose 37.5 g/ha) | inhibition ratio, Amaranthus retroflexus (amaranthus retroflexus; dose 75 g/ha) | herbicidal activity inhibition ratio (%), Amaranthus retroflexus (amaranthus retroflexus) | inhibition ratio, Digitaria sanguinalis (digitaria sanguinalis; dose 37.5 g/ha) | inhibition ratio, Digitaria sanguinalis (digitaria sanguinalis; dose 75 g/ha) | herbicidal activity inhibition ratio (%), Digitaria sanguinalis (digitaria sanguinalis) | inhibition ratio, Eclipta prostrata (eclipta prostrata; dose 37.5 g/ha) | inhibition ratio, Eclipta prostrata (eclipta prostrata; dose 75 g/ha) | herbicidal activity inhibition ratio (%), Eclipta prostrata (eclipta prostrata) | inhibition ratio, Echinochloa crusgalli (echinochloa crusgalli; dose 37.5 g/ha) | inhibition ratio, Echinochloa crusgalli (echinochloa crusgalli; dose 75 g/ha) | herbicidal activity inhibition ratio (%), Echinochloa crusgalli (echinochloa crusgalli) | inhibition ratio, Setaria viridis (setaria viridis; dose 37.5 g/ha) | inhibition ratio, Setaria viridis (setaria viridis; dose 75 g/ha) | inhibition ratio, Abutilon theophrasti (abutilon theophrasti; dose 37.5 g/ha) | inhibition ratio, Abutilon theophrasti (abutilon theophrasti; dose 75 g/ha) | inhibition ratio, Maize (crop safety) (maize; dose 75 g/ha) | inhibition ratio, Maize (crop safety) (maize; dose 150 g/ha) | inhibition ratio, Wheat (crop safety) (wheat; dose 75 g/ha) | inhibition ratio, Wheat (crop safety) (wheat; dose 150 g/ha) | further results
1 | Cc1c(C(=O)C2=C(O)CC(C)(C)CC2=O)ccc2c1c(=O)n(-c1ccccc1C(F)(F)F)c(=O)n2C [Compound 91] | 60% | 80% | 100% | 70% | 90% | 100% | 80% | 93% | 100% | 65% | 90% | 100% | 100% | 100% | 85% | 93% | 0% | 10% | 0% | 10% | herbicidal activity inhibition ratio (%), Setaria viridis (setaria viridis): 100%; herbicidal activity inhibition ratio (%), Abutilon theophrasti (abutilon theophrasti): 100%
2 | Cn1c(=O)n(-c2cccc(Br)c2)c(=O)c2cc(C(=O)C3=C(O)CCCC3=O)ccc21 [Compound 23] | 100% | 100% | 95% | 20% | 65% | 30% | 100% | 100% | 50% | 20% | 20% | 85% | 30% | 50% | 100% | 100% | 0% | 0% | 0% | 5% | herbicidal activity inhibition ratio (%), Setaria viridis (setaria viridis): 45%; herbicidal activity inhibition ratio (%), Abutilon theophrasti (abutilon theophrasti): 85%; safety to maize fields (in words) (maize; dose 150 g/ha): highly safe
3 | Cc1ccccc1-n1c(=O)c2cc(C(=O)C3=C(O)CC(C)(C)CC3=O)ccc2n(C)c1=O [Compound 21] | 80% | 90% | 100% | 70% | 75% | 85% | 40% | 50% | 95% | 70% | 75% | 85% | 70% | 75% | 70% | 100% | 0% | 15% | 0% | 0% | herbicidal activity inhibition ratio (%), Setaria viridis (setaria viridis): 100%; herbicidal activity inhibition ratio (%), Abutilon theophrasti (abutilon theophrasti): 85%
4 | CCc1ccccc1-n1c(=O)c2cc(C(=O)C3=C(O)CCCC3=O)ccc2n(C)c1=O [Compound 47] | 90% | 95% | 100% | 80% | 85% | 95% | 20% | 30% | 85% | 80% | 88% | 85% | 88% | 90% | 60% | 90% | 0% | 0% | 0% | 0% | herbicidal activity inhibition ratio (%), Setaria viridis (setaria viridis): 83%; herbicidal activity inhibition ratio (%), Abutilon theophrasti (abutilon theophrasti): 100%; safety to maize fields (in words) (maize; dose 150 g/ha): highly safe
5 | Cc1ccccc1-n1c(=O)c2cc(C(=O)C3=C(O)CCCC3=O)ccc2n(C)c1=O [Compound 20] | 50% | 60% | 100% | 40% | 70% | 100% | 50% | 50% | 95% | 50% | 60% | 100% | 50% | 70% | 30% | 85% | 0% | 15% | 0% | 0% | herbicidal activity inhibition ratio (%), Setaria viridis (setaria viridis): 100%; herbicidal activity inhibition ratio (%), Abutilon theophrasti (abutilon theophrasti): 100%
6 | CS(=O)(=O)c1ccc(C(=O)C2C(=O)CCCC2=O)c([N+](=O)[O-])c1 [Mesotrione, mesotrione, reference compound] | 70% | 75% | – | 40% | 70% | – | 75% | 85% | – | 50% | 70% | – | 0% | 0% | 100% | 100% | 7% | 15% | 10% | 40% | prevention and control of setaria viridis (in words) (setaria viridis; secondary screening, 37.5 and 75 g/ha): cannot be prevented and controlled
7 | Cc1cccc(C)c1-n1c(=O)c2cc(C(=O)C3=C(O)CCCC3=O)ccc2n(C)c1=O [Compound 34] | 100% | 100% | 100% | 55% | 75% | 83% | 30% | 50% | 80% | 65% | 80% | 90% | 70% | 78% | 30% | 50% | 0% | 0% | 0% | 5% | herbicidal activity inhibition ratio (%), Setaria viridis (setaria viridis): 80%; herbicidal activity inhibition ratio (%), Abutilon theophrasti (abutilon theophrasti): 90%; safety to maize fields (in words) (maize; dose 150 g/ha): highly safe
